Assay [1] relates to orthotopic neuroblastoma xenograft (SK-N-BE(2) cells). Description: Orthotopic neuroblastoma xenograft model, tumor growth by ultrasound. It counts as in vivo, mice. The conditions noted are these: diet 2000 ppm NEN (n=4) vs control group (n=6). The protocol: Mouse orthotopic neuroblastoma model. All mouse procedures were performed in accordance with Stanford University recommendations for the care and use of animals and were maintained and handled under protocols approved by the Institutional Animal Care and Use Committee. All procedures were performed with female NC nude mice (Taconic, Hudson, NY, USA) at 7 weeks of age. Procedures and ultrasound measurements (see below) were performed under general anesthesia using isoflurane inhalation. Orthotopic tumors within the adrenal gland were created as described before 16. Briefly, a transverse incision was made on the left flank to locate the left adrenal gland, and […] of phosphate buffered saline (PBS) containing […] SK-N-BE(2) cells were injected into the adrenal gland using a 30 G needle. Fascia and skin were closed in separate layers. Tumor formation was monitored by non-invasive ultrasound measurements, and the animals euthanized when the tumor volume exceeded 1,000 mm^3. Monitoring tumor growth with high frequency ultrasound. After securing the mouse in a prone position, a Visual Sonics Vevo 2100 sonographic probe (Toronto, Ontario, Canada) was applied to the left flank to locate the left adrenal gland and the tumor. […] The tumor volume was measured using the 3-D reconstruction tool (Vevo Software v1.6.0, Toronto, Ontario, Canada).

Assay [2] shares this test system. Description: Metabolite levels in orthotopic xenograft tumors by LC/MS. Particulars: diet 2000 ppm NEN vs control. It counts as in vivo, mice. The protocol: Metabolic analysis. For the metabolomics and isotope tracing analysis in vitro, cells were washed with cold PBS, lysed in 80% Ultra LC-MS acetonitrile on ice for 15 minutes, centrifuged at 20,000 g for 10 minutes at 4° C., and supernatant was subjected to mass spectrometry analysis. For the metabolomics analysis in vivo, 10-20 mg tissue were cut off on ice, rinsed if necessary to remove blood, and place in a 2 ml round-bottom cryovial. The tissues were homogenized by 3 times 10 s on/off bursts homogenization in 1 ml 80% methanol on dry ice. Transfer the homogenate to an Eppendorf tube and keep on liquid nitrogen while processing the remaining samples. Incubated all the samples in −80° C. for 30 minutes. After incubation, vortexed the samples for 5 seconds. Then centrifuged the samples at 20,000 g for 10 minutes at 4° C., and supernatant was subjected to mass spectrometry analysis. Resuspend the remaining cellular pellet in 100 ul protein lysis buffer and determine the protein concentration. Then calculate the total protein content per sample.
Liquid chromatography was performed using an Agilent 1290 Infinity LC system (Agilent, Santa Clara, US) coupled to a Q-TOF 6545 mass spectrometer (Agilent, Santa Clara, US). A hydrophilic interaction chromatography method (HILIC) with a BEH amide column (100×2.1 mm i.d., 1.7 μm; Waters) was used for compound separation at 35° C. with a flow rate of 0.3 ml/minutes. The mobile phase A consisted of 25 mM ammonium acetate and 25 mM ammonium hydroxide in water and mobile phase B was acetonitrile. The gradient elution was 0-1 minute, 85% B; 1-12 minutes, 85% B→65% B; 12-12.2 minutes, 65% B→40% B; 12.2-15 minutes, 40% B. After the gradient, the column was re-equilibrated at 85% B for 5 minutes. The overall runtime was 20 minutes, and the injection volume was 5 μL. […]
Mouse orthotopic neuroblastoma model. […] Tumor formation was monitored by non-invasive ultrasound measurements, and the animals euthanized when the tumor volume exceeded 1,000 mm^3.

The test system of assay [3] is RA-resistant neuroblastoma cells. Kind of assay: Clonogenic assay. It counts as cell-based. Particulars: 1 μM NEN with 1 μM RA, two weeks. The procedure:
For the clonogenic assay, 500 cells were plated in 60 mm dishes. After 24 h, cells were treated with indicated conditions. After 14 days, the cells were fixed by 50% methanol in PBS for 15 minutes and stained by crystal violet staining solution (0.5% crystal violet and 25% methanol in PBS). The quantification was done by using countPHICS.

In assay [4] the test system is SK-N-BE(2) cells. Kind of assay: Western blot of RA signaling proteins. It counts as cell-based. The conditions noted are these: 24 hrs. The procedure:
Protein extraction and immunoblot. Cells were washed with ice-cold PBS buffer (Invitrogen, 20012050) and lysed with harvest buffer (10 mM Hepes pH 7.9, 50 mM NaCl, 500 mM sucrose, 0.1 mM EDTA and 0.5% Trition X-100) supplemented with 1% Halt inhibitors (Thermo Scientific™, 78443) for 10 minutes. Cell lysate was centrifuged at 3000 rpm for 3 min at 4° C. The supernatant containing cytosolic proteins was transferred to a different tube. The pellet containing nuclear proteins was dissolved with nuclear lysis buffer (10 mM Hepes pH 7.9, 0.5M NaCl, 0.1 mM EDTA, 0.1 mM EGTA and 0.1% NP40) supplemented with 1% Halt inhibitors (Thermo Scientific™, 78443) for 5 minutes at 4° C. Then the solution was sonicated at 4° C. for 6 cycles (1 cycle=30 s sonication and 30 s cooldown with “High” energy intensity) using a Bioruptor® Plus sonication (Diagenode, UCD-300). After sonication, the solution was centrifuged at 15,000 rpm for 10 minutes. The supernatant was kept as nuclear extraction. Protein concentration was determined by BCA assay (Thermo Scientific, 23227). 5 μg nuclear proteins or 7.5 μg cytosolic proteins were boiled in loading buffer with reducing reagents (Invitrogen, NuPAGE™ LDS Sample Buffer (4X), NP0007), then separated with SDS-PAGE (Nupage™ 4-12% Bis-Tris Protein Gels, 1.0 mm, Invitrogen™, NP0322BOX). Protein was transferred onto a nitrocellulose membrane (Thermo Scientific™, 88018). After blocking in 5% non-fat milk for 30 minutes at room temperature (RT), the primary antibody was added for incubation overnight at 4° C. After washing with TBST (CST, #9997, 1:10 diluted by deionized water) for 3 times, HRP-conjugated secondary antibodies were applied. Signals were detected with an ECL kit (Thermo Scientific™, 34577) by using BioRad Universal Hood II.
Background: In western blotting, separated proteins are transferred to a membrane and probed.

Regarding `O=C(Nc1ccc([N+](=O)[O-])cc1Cl)c1cc(Cl)ccc1O` [NEN, 5-chloro-N-(2-chloro-4-nitrophenyl)-2-hydroxybenzamide compound with 2-aminoethanol (1:1)], in assay [1], the tumor growth result is on record as “significantly slowed”. In assay [2], the “2-HG level in the tumor” value was “reduced”, the “NAD+/NADH in the tumor” value is reported as “increased” and the “lactate level in the tumor” value was “slightly reduced”. Moreover, the “inhibition of clonogenicity, NEN with RA” value in assay [3] is recorded as “strong synergistic effect”. Besides, the “protein level of RARγ” value in assay [4] (1 μM NEN alone) was “increased”. In addition, the “protein level of RARγ” value in assay [4] (1 μM NEN combined with 1 μM RA) is on record as “further upregulated”.

Values taken from patent publication US11918550B2, “Sensitization of cancer cells to differentiation therapy with mitochondrial uncoupler niclosamide ethanolamine” (The Board of Trustees of the Leland Stanford Junior …, priority 2020, dated 2024).
